In patent publication US6040149A, “Assay for identifying agents which act on the ceramide-activated protein kinase, kinase suppressor of ras, and methods of using said agents” (priority 1997, dated 2000):

Assays:
[1] = test system: ceramide-activated protein kinase; assay: EGFR peptide phosphorylation by kinase in A-431 microsomal membranes / postnuclear supernatant; type: biochemical, human (A-431 epidermoid carcinoma cells)
Raf-1 = Raf-1 phosphorylation in intact HL-60 cells; type: cell-based, human (HL-60 cells)
Procedure: To examine this possibility, intact HL-60 cells were metabolically labeled with ^32 P-orthophosphate for 4 hr followed by stimulation with TNF for the indicated times (FIG. 20A). […] Raf-1 proteins were resolved by SDS-PAGE and autoradiographed.
FIG. 20A--300×10^6 cells were resuspended at 37° C. in 15 ml of serum-free phosphate-free RPMI medium ([…]) containing 6 mCi ^32 P-orthophosphate. After […], cells were resuspended into the same buffer without radiolabel (5×10^7 /point) and stimulated with TNF (1 nM). At the indicated times, ice-cold serum-free phosphate-free RPMI was added and cells were homogenized as described in FIG. 17 in RIPA lysis buffer. Cell debris was removed by centrifugation at 700×g for 5 min. […] After SDS-PAGE, Raf-1 was transferred to an Immobilon PVDF (Millipore) membrane according to the vendor's instructions. […] The data (CPM/Raf protein) are presented as fold of control and represent one of three studies performed in triplicate.

KSR = target: T1, KSR (Mus musculus, UniProt Q61097); assay: Phosphorylation and activation of recombinant Raf-1 by KSR immunoprecipitated from treated COS-7 cells; type: cell-based, mouse (KSR expressed in COS-7 cells); details: C2-ceramide 1 μM; TNFα 10 nM
T1 sequence (Q61097 1-873): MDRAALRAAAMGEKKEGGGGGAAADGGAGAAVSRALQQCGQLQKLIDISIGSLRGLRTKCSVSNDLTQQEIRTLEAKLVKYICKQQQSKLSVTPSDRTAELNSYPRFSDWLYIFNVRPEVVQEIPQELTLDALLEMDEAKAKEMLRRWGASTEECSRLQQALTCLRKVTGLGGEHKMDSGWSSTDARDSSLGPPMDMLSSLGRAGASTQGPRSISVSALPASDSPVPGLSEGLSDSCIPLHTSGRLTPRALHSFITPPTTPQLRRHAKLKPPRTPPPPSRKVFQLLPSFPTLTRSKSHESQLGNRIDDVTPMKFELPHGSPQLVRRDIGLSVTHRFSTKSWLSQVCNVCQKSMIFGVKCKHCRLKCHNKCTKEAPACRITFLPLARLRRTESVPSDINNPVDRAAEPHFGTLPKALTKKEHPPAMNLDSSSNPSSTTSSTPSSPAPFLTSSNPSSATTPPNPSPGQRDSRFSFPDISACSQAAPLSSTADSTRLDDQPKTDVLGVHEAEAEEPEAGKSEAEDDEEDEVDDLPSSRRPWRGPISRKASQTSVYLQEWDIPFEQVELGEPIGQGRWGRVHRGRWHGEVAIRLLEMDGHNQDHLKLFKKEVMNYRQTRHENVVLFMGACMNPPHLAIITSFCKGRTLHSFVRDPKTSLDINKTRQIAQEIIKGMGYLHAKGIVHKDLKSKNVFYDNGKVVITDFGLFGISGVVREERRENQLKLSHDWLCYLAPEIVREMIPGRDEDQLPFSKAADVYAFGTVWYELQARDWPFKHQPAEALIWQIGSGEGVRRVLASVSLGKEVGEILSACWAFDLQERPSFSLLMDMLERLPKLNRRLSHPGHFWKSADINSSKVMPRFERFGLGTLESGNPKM
Procedure: FIGS. 23B-23C--COS-7 cells expressing Flag-tagged KSR were stimulated with 1 μM C2-ceramide for 10 min and lysed with NP-40 buffer as in FIG. 23A. […] The autoradiogram was exposed for 1 hour. Data represent one of three experiments.
COS-7 cells expressing Flag-tagged KSR were stimulated with 10 nM TNFα for the times indicated and lysed with NP-40 buffer as in FIG. 2A. […] The autoradiogram was exposed for 1 hour. Data represent one of three similar experiments.
Immunoprecipitated KSR was incubated with reaction buffer A containing 0.5 mM ATP and a protein kinase inhibitor cocktail [20 μM PKC inhibitor peptide (UBI), 2 μM protein kinase A inhibitor peptide (UBI) and 20 μM R24571 (Sigma)] for 30 min at 22° C.

Molecule	EGFR peptide phosphorylation, fold of control ([1]; 2 minutes of stimulation, maximal effect for ceramide at 1 μM)	effect on EGFR peptide phosphorylation ([1]; words)	duration of elevated Raf-1 phosphorylation (Raf-1; TNF)	Raf-1 phosphorylation in intact HL-60 cells (Raf-1; TNF 1 nM, ceramide, sphingomyelinase 10 mU/ml)	activity of immunoprecipitated KSR to phosphorylate and activate Raf-1 (KSR)
CCCCCCCCCCCCC/C=C/[C@@H](O)[C@@H](N)CO [sphingosine]	1.6 fold of control	similarly effective			
TNF-α			at least 20 min	increased within seconds	stimulated dramatically
